Common to all, as to format: physicochemical
A short description of data set [1]: Chromaticity (platinum-cobalt colorimetry). The settings on record: aconitate/citrate products, Table 4; colour comparison at 25°C. On the procedure: 3. Chromaticity: preparation of 500# platinum-cobalt colorimetric standard stock solution: 1.2450 g of potassium chloroplatinate and 1.0000 g of cobalt chloride were weighed, with an accuracy of 0.0002 g, the mixture was dissolved in 100 mL of hydrochloric acid, and then diluted to 1000 mL with distilled water. This solution is just the 500# colorimetric standard comparison solution.
Preparation of colorimetric standards below 500#: different amounts of the 500# stock solution was prepared, and diluted with distilled water to the volume of a colorimetric tube to prepare colorimetric standard solutions of any number. The calculation formula is as follows: V = (N×V1)/500 [formula]
In the formula, V is the volume of the 500# standard stock solution taken to prepare the N# colorimetric standard solution, in mL; V1 is the volume of the colorimetric tube used, in mL; and N is the number of the colorimetric standard solution to be prepared.
Color comparison determination was performed at 25°C.

The nature of data set [2]: Compatibility (water value method). The settings on record: 2.5 g plasticizer and 25 g acetone titrated with deionized water until turbidity; Table 5. Here is the method:
(§1) The aconitates and tributyl citrate prepared in the above examples and comparative examples were added as plasticizers to PVC resin to obtain PVC plastics. The PVC plastics include 100 parts of PVC resin, 35 parts of plasticizer, 2 parts of oxidized polyethylene wax, and 5 parts of octyltin maleate. The above raw materials were mixed and prepared using the same mixing process to obtain finished PVC products. The performance tests were performed on different plasticizers and the obtained PVC finished products in the above examples and comparative examples. […] Three points were selected for each group of samples, each point was tested once, and a median value was taken. • 2. […] Compatibility: tests were performed using a water value method. Since water molecules are polar, the compatibility between the plasticizer and water can characterize the compatibility between the plasticizer and polar materials (PVC, PLA, and nitrile rubber). When a certain plasticizer has good compatibility with water, it has good compatibility with PVC, and vice versa. In the experiment, 2.5 g of plasticizer and 25 g of acetone were added to a beaker, titrated with a burette filled with deionized water, and agitated while titrating until turbidity appears, and the volume of deionized water consumed was recorded. • 4. Glass transition temperature (Tg): the glass transition temperature was tested using a dynamic mechanical analyzer. Test conditions: nitrogen was taken as the carrier gas, at a test temperature range of -40 to 80°C, a heating rate of 3°C/min, and a frequency of 1 Hz.

A short description of data set [3]: Hardness (Shore hardness tester, GB/T 531-2008). The settings on record: PVC plastic: 100 parts PVC resin, 35 parts plasticizer, 2 parts oxidized polyethylene wax, 5 parts octyltin maleate. Here is the method: as §1, with “The PVC plastics include 100 parts of PVC resin, 35 parts of plasticizer, 2 parts of oxidized polyethylene wax, and 5 parts of octyltin maleate.” left out

Data set [4] in a line: Tensile properties (GB/T 1040-2006): tensile modulus at 100%, elongation at break, elastic modulus. The settings on record: PVC plastic with 35 parts plasticizer; 50 mm/min, 25°C. On the procedure:
as §1

Data set [5] is described as follows: Residual amounts of fat-soluble and water-soluble pigments (HPLC). The settings on record: aconitate/citrate products, Table 4. On the procedure: 7. Residual amounts of fat-soluble pigments and water-soluble pigments: • a high-performance liquid chromatograph (HPLC) was used, and the instrument sensitivity and stability of the detector should comply with the provisions of GB/T 16631-2008. Chromatographic column: C18 column; injector: 10 µL micro-syringe; solvent: acetonitrile (HPLC grade); acquisition time: 15 min; mobile phase: 80% acetonitrile (HPLC grade) and 20% deionized water; injection volume: 1 µL; wavelength: 230 nm.
Test: the instrument was adjusted according to the above provisions. After the baseline was stable, 0.2 µL of the sample was injected using a micro-syringe, and the integrator or chromatographic workstation was started at the same time. A pigment concentration-integral area standard curve was established by testing the integral areas of pigments with different concentrations. When the pigment content was measured, the corresponding pigment integral area was automatically given by the instrument, and the pigment concentration was obtained by comparing with the standard curve. The ratio of the pigment concentration to the sample concentration is the pigment content.

The nature of data set [6]: Glass transition temperature (dynamic mechanical analyzer). The settings on record: PVC plastic with 35 parts plasticizer; -40 to 80°C, 3°C/min, 1 Hz. On the procedure:
as §1

A short description of data set [7]: Acid value (KOH titration). The settings on record: aconitate/citrate products, Table 4. On the procedure: The aconitates and citrates prepared in the above examples and comparative examples were tested for acid value, purity, chromaticity, yield, triester conversion rate, and water content. […] The mixture was neutralized with 0.02 mol·L^-1 potassium hydroxide aqueous solution until a faint pink color appears, and the consumed volume Vo was recorded. 1 g of the sample (accurate to 0.01 g) was weighed using a ground-neck conical flask, then one portion of the above neutralized solution was added. After the sample was completely dissolved, the sample was titrated with 0.02 mol·L^-1 potassium hydroxide-ethanol standard titration solution (the titration should be completed within 30 seconds) until a faint pink color appeared and persisted for 5 seconds without fading, which was considered as an end point. The consumed volume V was recorded. […] Chromatographic column: C18 column; injector: 10 µL micro-syringe; solvent: acetonitrile (HPLC grade); acquisition time: 15 min; mobile phase: 80% acetonitrile (HPLC grade) and 20% deionized water; injection volume: 1 µL; wavelength: 230 nm.

Data set [8] in a line: Water content (Karl Fischer moisture meter). The settings on record: aconitate/citrate products, Table 4. An excerpt:
6. Water content: a Karl Fischer moisture meter is used to test the water content (retained to two decimal places).

Molecules are shown by their SMILES. Counter-ions that a name gives are not always drawn.

`CCCCOC(=O)C=C(CC(=O)OCCCC)C(=O)OCCCC` [Comparative Example 1, tributyl aconitate, reference compound]: in data set [1], the Chromaticity is over 500 Pt-Co. Also, the Compatibility in data set [2] is recorded as 10.8 mL. In addition, the “Hardness/Shore D” value in data set [3] was determined as 46 Shore D. For the same compound, in data set [4], the Elastic modulus was found to be 192.2 MPa, the Elongation at break stood at 223.2% and the “Tensile modulus at 100%” value came to 17.9 MPa. Further, in data set [5], the “Residual amounts of fat-soluble pigments” value was found to be 16424 ppm and the “Residual amounts of water-soluble pigments” value was determined as 13861 ppm. This compound returned a Tg in data set [6] of 30.7 °C. In data set [7], this compound came in with an Acid value of 0.05 KOH/g. Also, the Water content in data set [8] was 0.03%.
Consider `CCCCOC(=O)C=C(CC(=O)OCCCC)C(=O)OCCCC` [Comparative Example 2, tributyl aconitate, reference compound], for which the Chromaticity in data set [1] turned out to be 120 Pt-Co. Besides, the Compatibility in data set [2] came to 12.5 mL. Further, the “Hardness/Shore D” value in data set [3] was 45 Shore D. In data set [4], the Elastic modulus was 187.3 MPa, the Elongation at break was determined as 231.4% and the “Tensile modulus at 100%” value stood at 17.4 MPa. Also, in data set [5], the “Residual amounts of fat-soluble pigments” value turned out to be 2406 ppm and the “Residual amounts of water-soluble pigments” value is on record as 2248 ppm. Also, the Tg in data set [6] came to 28.4 °C. In addition, the Acid value in data set [7] is on record as 0.05 KOH/g. This compound also displayed a Water content in data set [8] of 0.05%.
In turn, `CCCCOC(=O)C=C(CC(=O)OCCCC)C(=O)OCCCC` [Comparative Example 3, tributyl aconitate, reference compound] displayed a Chromaticity in data set [1] of 150 Pt-Co. In data set [2], this compound came in with a Compatibility of 12.5 mL. The “Hardness/Shore D” value in data set [3] amounted to 45 Shore D. For the same compound, in data set [4], the Elastic modulus worked out at 186.7 MPa, the Elongation at break turned out to be 233.6% and the “Tensile modulus at 100%” value turned out to be 17.4 MPa. In data set [5], the “Residual amounts of fat-soluble pigments” value worked out at 2864 ppm and the “Residual amounts of water-soluble pigments” value is on record as 2698 ppm. In addition, the Tg in data set [6] is 28.7 °C. Besides, in data set [7], the Acid value is 0.05 KOH/g. This compound returned a Water content in data set [8] of 0.04%.
For `CCCCOC(=O)CC(O)(CC(=O)OCCCC)C(=O)OCCCC` [Comparative Example 4, tributyl citrate, reference compound], the Chromaticity in data set [1] stood at 150 Pt-Co. The Compatibility in data set [2] is given as 13.9 mL. Also, the “Hardness/Shore D” value in data set [3] came to 51 Shore D. In addition, in data set [4], the Elastic modulus is 274.8 MPa, the Elongation at break was 201.3% and the “Tensile modulus at 100%” value stood at 18.1 MPa. For the same compound, in data set [5], the “Residual amounts of fat-soluble pigments” value stood at 3054 ppm and the “Residual amounts of water-soluble pigments” value is listed as 2156 ppm. In data set [6], this compound returned a Tg of 39.7 °C. In addition, the Acid value in data set [7] stood at 0.05 KOH/g. In data set [8], the Water content was determined as 0.04%.
Consider `CCCCOC(=O)CC(O)(CC(=O)OCCCC)C(=O)OCCCC` [Comparative Example 5, tributyl citrate, reference compound], for which the Chromaticity in data set [1] worked out at 50 Pt-Co. Besides, the Compatibility in data set [2] is on record as 14.3 mL. The “Hardness/Shore D” value in data set [3] was determined as 48 Shore D. For the same compound, in data set [4], the Elastic modulus is recorded as 226.4 MPa, the Elongation at break was found to be 213.4% and the “Tensile modulus at 100%” value worked out at 17.6 MPa. Further, in data set [5], the “Residual amounts of fat-soluble pigments” value came out at 852 ppm and the “Residual amounts of water-soluble pigments” value was 653 ppm. The Tg in data set [6] stood at 37.8 °C. Also, in data set [7], the Acid value is on record as 0.05 KOH/g. The compound also came in with a Water content in data set [8] of 0.03%.
`CCCCOC(=O)C=C(CC(=O)OCCCC)C(=O)OCCCC` [Example 19, tributyl aconitate]: in data set [1], the Chromaticity was 30 Pt-Co. The compound also came in with a Compatibility in data set [2] of 16.7 mL. Also, the “Hardness/Shore D” value in data set [3] is on record as 41 Shore D. Further, in data set [4], the Elastic modulus came out at 74.6 MPa, the Elongation at break stood at 260.1% and the “Tensile modulus at 100%” value amounted to 14.6 MPa. For the same compound, in data set [5], the “Residual amounts of fat-soluble pigments” value is listed as 431 ppm and the “Residual amounts of water-soluble pigments” value was determined as 405 ppm. In data set [6], this compound came in with a Tg of 27.6 °C. Further, in data set [7], the Acid value worked out at 0.05 KOH/g. This compound also gave a Water content in data set [8] of 0.03%.
With `CCCCC(CC)COC(=O)C=C(CC(=O)OCC(CC)CCCC)C(=O)OCC(CC)CCCC` (stereo not shown) [Example 20, tri(2-ethylhexyl) aconitate], in data set [1], the Chromaticity was determined as 30 Pt-Co. Besides, the Compatibility in data set [2] is recorded as 10.7 mL. The “Hardness/Shore D” value in data set [3] is 54 Shore D. Also, in data set [4], the Elastic modulus worked out at 301.6 MPa, the Elongation at break worked out at 181.6% and the “Tensile modulus at 100%” value came to 19.7 MPa. Besides, in data set [5], the “Residual amounts of fat-soluble pigments” value was found to be 634 ppm and the “Residual amounts of water-soluble pigments” value was 610 ppm. In data set [6], this compound had a Tg of 42.5 °C. The Acid value in data set [7] stood at 0.05 KOH/g. Further, the Water content in data set [8] worked out at 0.05%.
Take `CCOC(=O)C=C(CC(=O)OCC)C(=O)OCC` [Example 21, triethyl aconitate]: in data set [1], the Chromaticity was determined as 30 Pt-Co. In data set [2], the Compatibility is listed as 18.4 mL. The “Hardness/Shore D” value in data set [3] was determined as 43 Shore D. Also, in data set [4], the Elastic modulus turned out to be 135.5 MPa, the Elongation at break is 243.6% and the “Tensile modulus at 100%” value amounted to 15.8 MPa. In addition, in data set [5], the “Residual amounts of fat-soluble pigments” value is listed as 385 ppm and the “Residual amounts of water-soluble pigments” value is 328 ppm. Further, the Tg in data set [6] amounted to 28.2 °C. The same compound gave an Acid value in data set [7] of 0.05 KOH/g. In addition, the Water content in data set [8] came out at 0.02%.

The record behind these values is patent publication EP4715056A1, “BIO-BASED TRANS-ACONITATE, PREPARATION METHOD THEREFOR AND USE THEREOF” (Qingdao Institute of Bioenergy and Bioprocess Technology, …, priority 2023, dated 2024).
